# Where two headings read alike, the source gives them in different places.
# How the values were obtained:
# H1993 = assay: Impedance-based TCRP of Met addicted H1993 cells (xCelligence); type: cell-based, human; settings: for TCRP (Cell Index response): increasing concentrations; for IC50: read-out: IC50 (TCRP)
# Method: (§1) The cell index was normalized at time of compound addition.
# Cells were treated with ACEA348 (0-10 uM) for 30 min.
# (§2) The cell index (CI) was normalized at time of compound addition.
# The time-dependent cell response profiles (TCRP) were monitored prior to and after the compound addition using the xCelligence system (ACEA Biosciences/Roche applied sciences).
# The Cell index was normalized against the cell index values at a time point just before compound addition. […] EC50 and IC50 of the Met inhibitor can be derived from the CI versus the corresponding log concentration of the inhibitor.
# 10T1/2 tva = assay: Impedance-based TCRP of control cell line 10T1/2 tva; design: species or system mouse; settings: 10T1/2 tva control cell line; from 0 to 10 uM
# Method: (§3) Cells were serum starved for 5 hour. The cell index was normalized at time of compound addition. At the indicated time point of treatment, increasing concentrations of PI103 (0-10 uM) was added to the cells and the cell responses were monitored.
# as §2
# A mouse fibroblast 10T1/2 expressing the cell-surface receptor TVA, which is specific for subgroup-A avian retroviruses was used.
# (§4) Then the normal growth medium (10% FBS) was exchanged with medium containing 0% FBS. The cells were incubated for additional 5 hours before compound treatment. A PI3K inhibitor (PI103) at different concentrations in DMSO was added into wells following the incubation period. The cell status was monitored prior to and after the compound addition using xCelligence system (Roche applied sciences). […] Cell index of the cells treated with solvent DMSO control was used as baseline. The Cell index was normalized against the cell index values at a time point just before compound addition.
# 10T1/2 tva-H1047R = assay: Impedance-based TCRP of 10T1/2 tva-H1047R cells expressing human p110α (H1047R); type: cell-based, mouse; settings: 10T1/2 tva-H1047R; serum starved; from 0 to 10 uM
# Method: as §3, §2
# A mouse fibroblast 10T1/2 expressing the cell-surface receptor TVA, which is specific for subgroup-A avian retroviruses was used. […] A549 is a human lung cancer cell line expressing wild-type p110α. T47D and BT20 are human breast cancer cell lines expressing mutant p110α (T47D) and p110α (P539R/H1047R), respectively.
# as §4
# C6 = assay: Impedance-based TCRP of PDGFR addicted C6 glioma cells; type: cell-based, rat; settings: for IC50: Rattus norvegicus, read-out: IC50 (TCRP); for TCRP (Cell Index response): increasing concentrations
# Method: as §2
# Kinase inhibitors including PDGFR inhibitors at different concentrations in DMSO were added into wells following the incubation period. The cell status was monitored prior to and after the compound addition using xCelligence system (Roche applied sciences). […] The Cell index was normalized against the cell index values at a time point just before compound addition.
# IC50 of the PDGFR inhibitor can be derived from the CI versus the corresponding log concentration of the inhibitor.
# H1975 [1] = assay: EGF-stimulated CI increase in H1975 cells; type: cell-based; settings: Homo sapiens
# SH-SY5Y = assay: Impedance-based TCRP of SH-SY5Y cells, mutant ALK (F1174L); type: cell-based, human; settings: for IC50: mutant ALK (F1174L), long-term (72 hours post compound treatment) CI; for TCRP (Cell Index response): 10 uM
# From the text: as §1
# The cell index (CI) was normalized at time of compound addition. […] DMSO was served as solvent control.
# The cell index was normalized at time of compound addition. DMSO at the same dose was served as solvent control.
# as §2
# SK-MEL-28 = assay: Impedance-based TCRP of SK-MEL-28, b-Raf (V600E) addicted melanoma cells; type: cell-based, human
# Method: as §1
# (A) The impedance-based time-dependent cellular profiles (TCRPs) of SK-MEL28 in response to b-Raf inhibitor on xCelligence system (Roche/ACEA). […] The cell index (CI) was normalized at time of the compound addition. At the indicated time point of treatment (arrow), increasing concentrations of b-Raf inhibitor (from 0 to 10 uM) were added to the cells and the cell response was monitored. […] (B) EC50 of b-Raf derived from impedance-based TCRP.
# as §2
# Cell lines. […] The time-dependent cell response profiles (TCRP) were monitored prior to and after the compound addition using the xCelligence system (ACEA Biosciences/Roche applied sciences).
# Kinase inhibitors including b-Raf inhibitors at different concentrations in DMSO were added into wells following the incubation period. The cell status was monitored prior to and after the compound addition using xCelligence system (Roche applied sciences). […] The Cell index was normalized against the cell index values at a time point just before compound addition.
# PDGFRβ = target: T1, PDGFRβ (Rattus norvegicus, UniProt Q05030); assay: Western analysis of PDGFR signaling pathway in C6 cells; type: cell-based
# T1 construct: endogenous in cells; host or cells: C6 rat glioma cells
# T1 sequence (Q05030 32-1097): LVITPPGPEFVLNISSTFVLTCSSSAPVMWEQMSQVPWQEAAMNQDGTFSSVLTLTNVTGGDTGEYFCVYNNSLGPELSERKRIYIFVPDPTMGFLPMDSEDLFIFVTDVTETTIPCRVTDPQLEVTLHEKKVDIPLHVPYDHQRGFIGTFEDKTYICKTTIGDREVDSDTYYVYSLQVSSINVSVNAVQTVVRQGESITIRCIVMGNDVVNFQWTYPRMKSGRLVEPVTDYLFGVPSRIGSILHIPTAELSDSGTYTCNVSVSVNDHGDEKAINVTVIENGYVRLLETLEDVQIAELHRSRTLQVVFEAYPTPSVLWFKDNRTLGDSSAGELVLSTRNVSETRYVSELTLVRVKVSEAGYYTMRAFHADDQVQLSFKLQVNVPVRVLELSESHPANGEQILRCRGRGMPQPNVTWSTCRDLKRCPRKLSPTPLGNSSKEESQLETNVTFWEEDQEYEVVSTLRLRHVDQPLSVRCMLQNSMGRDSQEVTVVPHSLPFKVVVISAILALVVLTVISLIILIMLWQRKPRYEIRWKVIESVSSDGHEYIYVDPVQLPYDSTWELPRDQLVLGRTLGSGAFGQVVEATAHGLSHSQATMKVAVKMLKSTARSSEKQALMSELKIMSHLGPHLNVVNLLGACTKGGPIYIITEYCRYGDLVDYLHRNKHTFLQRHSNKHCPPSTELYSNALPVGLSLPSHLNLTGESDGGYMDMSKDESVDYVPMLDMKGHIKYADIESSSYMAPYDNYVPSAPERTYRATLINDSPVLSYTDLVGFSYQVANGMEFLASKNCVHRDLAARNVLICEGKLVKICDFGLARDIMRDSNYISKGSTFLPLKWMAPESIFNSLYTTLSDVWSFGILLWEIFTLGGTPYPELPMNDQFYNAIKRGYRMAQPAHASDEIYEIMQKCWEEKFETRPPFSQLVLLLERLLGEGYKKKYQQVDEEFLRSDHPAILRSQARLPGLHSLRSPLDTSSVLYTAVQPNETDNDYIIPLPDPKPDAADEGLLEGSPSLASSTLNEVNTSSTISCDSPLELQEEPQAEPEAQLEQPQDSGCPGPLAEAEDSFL
# HCC827 = assay: Impedance-based TCRP of HCC827 cells, mutant EGFR (Del E746_A750); type: cell-based
# Method: as §2
# Kinase inhibitors including EGFR inhibitors at different concentrations in DMSO were added into wells following the incubation period. The cell status was monitored prior to and after the compound addition using xCelligence system (Roche applied sciences). The Cell index was normalized against the cell index values at a time point just before compound addition.
# A431 [2] = assay: Impedance-based TCRP of A431 cells, constitutive EGFR activation; type: cell-based; settings: for IC50: Homo sapiens, read-out: IC50 (TCRP, constitutive activation)
# Method: as §2
# A431 cells were seeded into wells of 96 well E-plate devices (Roche applied sciences) with an initial seeding density of 20,000 cells per well and were pre-incubated in incubator with DMEM medium plus 2% FBS over night. […] DMSO at the same dose was served as solvent control. […] The IC50s derived from this experiment evaluate the inhibition of these inhibitors to this basal activation of EGFR (caused by dimerization without EGF stimulation)
# A431 [3] = assay: EGF-stimulated CI increase in A431 cells; type: cell-based; settings: Homo sapiens
# Method: A431 cells were seeded at 20,000 cells per well of 96-well E-plate (Roche/ACEA) with 2% fetal bovine serum. The cells were continuously monitored using xCelligence system (Roche/ACEA). […] The cell index was normalized at time of EGF addition.
# To further evaluate the efficacies of these EFGR inhibitors, we tested the inhibitory effect of these inhibitors on the EGF stimulated response using impedance-based technology (FIG. 15). In this experiment, A431 cells were seeded at 20,000 cells per well of 96-well E-plate (Roche/ACEA) with 2% fetal bovine serum. The cells were continuously monitored using xCelligence system (Roche/ACEA). […] The cell index was normalized at time of EGF addition.
# H1975 [4] = assay: Impedance-based TCRP of H1975 cells, constitutive EGFR activation; type: cell-based; settings: for IC50: Homo sapiens, read-out: IC50 (TCRP, constitutive activation)
# Method: as §2
# H1975 cells were seeded at 3,000 cells per well of 96-well E-plate (Roche/ACEA) in RPMI1640 medium with 1% fetal bovine serum. […] The cell index (CI) was normalized at time of compound addition.
# [5] = C6, Long-term (96 hours post compound treatment) CI
# [6] = NCI-H1975, H1975, inhibitor 1 hour, then EGF 30 ng/ml, Normalized Cell Index at 30 minutes after EGF, estimated, read-out: IC50 (TCRP, ligand stimulated)
Compound,TCRP (Cell Index response) (H1993; H1993),TCRP (Cell Index response) (10T1/2 tva),TCRP (Cell Index response) (10T1/2 tva-H1047R),further results
C[S+]([O-])c1ccc(-c2nc(-c3ccncc3)c(-c3ccc(F)cc3)[nH]2)cc1 (stereo not shown) [SB203580],None of these inhibitors induced a TCRP similar to PF2341006,–,–,–
AKT inhibitor IV,None of these inhibitors induced a TCRP similar to PF2341006,–,–,–
O=c1[nH]c2ccccc2n1C1CCN(Cc2ccc(-c3nc4cc5[nH]cnc5cc4nc3-c3ccccc3)cc2)CC1 [AKT inhibitor VIII],None of these inhibitors induced a TCRP similar to PF2341006,cell index decreases in both the control cell line and H1047R cell line,cell index decreases in both the control cell line and H1047R cell line,–
CCN(CC)CCNC(=O)c1c(C)[nH]c(/C=C2\C(=O)Nc3ccc(F)cc32)c1C [Sunitinib],–,–,–,IC50 (C6; [5]): 42.2 nM
CC1=C(C(=O)Nc2cc3cn[nH]c3cc2F)C(c2ccc(C(F)(F)F)cc2)CC(=O)N1 (stereo not shown) [GSK429286],None of these inhibitors induced a TCRP similar to PF2341006,–,–,–
COc1cccc(-c2cc(=O)c3ccccc3o2)c1N [PD98059],None of these inhibitors induced a TCRP similar to PF2341006,did not introduce significant cell index changes in either cell line,did not introduce significant cell index changes in either cell line,–
CN(C)C/C=C/C(=O)Nc1cc2c(Nc3ccc(F)c(Cl)c3)ncnc2cc1O[C@H]1CCOC1 [BIBW2992],–,–,–,"IC50 (H1975 [1]; NCI-H1975, read-out: IC50 (TCRP, ligand stimulated)): ~200 nM"
CC[C@]1(O)C[C@H]2CN(CCc3c([nH]c4ccccc34)[C@@](C(=O)OC)(c3cc4c(cc3OC)N(C=O)[C@H]3[C@@](O)(C(=O)OC)[C@H](OC(C)=O)[C@]5(CC)C=CCN6CC[C@]43[C@@H]65)C2)C1 [vincristine],–,cell index decreases in both the control cell line and H1047R cell line,cell index decreases in both the control cell line and H1047R cell line,–
CNC(=O)c1c(F)cccc1Nc1nc(Nc2cc3c(cc2OC)CCN3C(=O)CN(C)C)nc2[nH]ccc12 [GSK1838705A],–,–,–,IC50 (SH-SY5Y): 137 nM
CN[C@@H]1C[C@H]2O[C@@](C)([C@@H]1OC)n1c3ccccc3c3c4c(c5c6ccccc6n2c5c31)C(=O)NC4 [Staurosporine],–,cell index decreases in both the control cell line and H1047R cell line,cell index decreases in both the control cell line and H1047R cell line,–
"C[C@@H](Oc1cc(-c2cnn(C3CCNCC3)c2)cnc1N)c1c(Cl)ccc(F)c1Cl [PF02341066, Crizotinib]",–,–,–,"IC50 (H1993; Homo sapiens, NCI-H1993, 200 h): 3.23 nM; EC50 (H1993; Homo sapiens, NCI-H1993, H1993, short-term (10 hours post compound treatment) CI): 2 nM; IC50 (H1993): 1.87 nM"
COc1ccc(-c2ccc3c(N4CCOCC4)nc(N4C[C@@H](C)O[C@@H](C)C4)nc3n2)cc1CO [KU0063794],None of these inhibitors induced a TCRP similar to PF2341006,not present in the control cell line 10T1/2-tva,triggered 10T1/2-tva-H1047R specific cell index drop,–
CO[C@H]1C[C@@H]2CC[C@@H](C)[C@@](O)(O2)C(=O)C(=O)N2CCCC[C@H]2C(=O)O[C@H]([C@H](C)C[C@@H]2CC[C@@H](OC(=O)C(C)(CO)CO)[C@H](OC)C2)CC(=O)[C@H](C)/C=C(\C)[C@@H](O)[C@@H](OC)C(=O)[C@H](C)C[C@H](C)/C=C/C=C/C=C/1C [Temsirolimus],–,not present in the control cell line 10T1/2-tva,triggered 10T1/2-tva-H1047R specific cell index drop,–
O=c1cc(CN2CCOCC2)occ1OCCCCCSc1ccnc2cc(C(F)(F)F)ccc12 [EHT1864],None of these inhibitors induced a TCRP similar to PF2341006,–,–,–
CN([C@@H](Cc1ccc(OS(=O)(=O)c2cccc3cnccc23)cc1)C(=O)N1CCN(c2ccccc2)CC1)S(=O)(=O)c1cccc2cnccc12 [CaM kinase inhibitor],–,did not introduce significant cell index changes in either cell line,did not introduce significant cell index changes in either cell line,–
CNC(=O)c1cc(Oc2ccc(NC(=O)Nc3ccc(Cl)c(C(F)(F)F)c3)cc2)ccn1 [sorafenib],–,cell index decreases in both the control cell line and H1047R cell line,–,"TCRP (Cell Index response) (SH-SY5Y): None trigged a TCRP representative to that trigger by ALK inhibitors; TCRP (Cell Index response) (C6; C6): dose-dependent short-term increase (to a various degree) and long-term decrease in Cell Index; IC50 (C6; C6, 96 h): 190 nM; TCRP (Cell Index response) (SK-MEL-28): did not affect CI changes that are significantly different from the negative control"
CCCCCCOC(=O)[C@]1(O)C[C@@H]2O[C@@]1(C)n1c3ccccc3c3c4c(c5c6ccccc6n2c5c31)C(=O)NC4 [KT5720],–,did not introduce significant cell index changes in either cell line,did not introduce significant cell index changes in either cell line,–
Cc1ccc(NC(=O)c2ccc(CN3CCN(C)CC3)cc2)cc1Nc1nccc(-c2cccnc2)n1 [Imatinib],–,–,–,phospho-MAPK (Western) (PDGFRβ; downstream target of PDGFR): down-regulated; PDGFRβ autophosphorylation (Western) (PDGFRβ; phospho-PDGFRβ (Y1021)): effectively inhibited
COc1cc(N2CCC(N3CCN(C)CC3)CC2)ccc1Nc1ncc(Cl)c(Nc2ccccc2S(=O)(=O)C(C)C)n1 [NVP-TAE684],–,–,–,IC50 (SH-SY5Y; Homo sapiens): 10.4 nM
CS(=O)(=O)CCNCc1ccc(-c2ccc3ncnc(Nc4ccc(OCc5cccc(F)c5)c(Cl)c4)c3c2)o1 [Lapatinib],–,–,–,"IC50 (HCC827; Homo sapiens, HCC827, 96 h, read-out: IC50 (TCRP)): 38.8 nM"
COc1cc2ncnc(Nc3cccc(Cl)c3)c2cc1OC [AG1478],–,–,–,TCRP (Cell Index response) (SH-SY5Y): None trigged a TCRP representative to that trigger by ALK inhibitors
O=C1Nc2ccc(I)cc2/C1=C/c1cc(Br)c(O)c(Br)c1 [GW5074],None of these inhibitors induced a TCRP similar to PF2341006,cell index decreases in both the control cell line and H1047R cell line,cell index decreases in both the control cell line and H1047R cell line,–
N#CC(=C(/N)Sc1ccccc1N)/C(C#N)=C(\N)Sc1ccccc1N [U0126],None of these inhibitors induced a TCRP similar to PF2341006,did not introduce significant cell index changes in either cell line,did not introduce significant cell index changes in either cell line,–
C=CC(=O)Nc1cc2c(Nc3ccc(F)c(Cl)c3)ncnc2cc1OCCCN1CCOCC1 [Canertinib],–,–,–,"TCRP (Cell Index response) (A431 [2]; A431, from 0 to 20 uM): dose-dependent short-term and long-term decrease in Cell Index; IC50 (A431 [2]; A-431, 72 h): 357 nM; IC50 (A431 [3]; A-431, read-out: IC50 (TCRP, ligand stimulated)): < 27 nM; TCRP (Cell Index response) (H1975 [4]; H1975, from 0 to 20 uM): dose-dependent short-term and long-term decrease in Cell Index; IC50 (H1975 [4]; NCI-H1975, 72 h): 396 nM; IC50 (H1975 [1]; [6]): ~150 nM"
C=CC(=O)Nc1cccc(Oc2nc(Nc3ccc(N4CCN(C)CC4)cc3OC)ncc2Cl)c1 [WZ4002],–,–,–,"IC50 (A431 [2]; A-431, A431 (wild-type EGFR), Long-term (72 hours post compound treatment) CI): 4370 nM; IC50 (A431 [3]; A-431, A431, inhibitor 1 hour, then EGF 30 ng/ml, Normalized Cell Index at 30 minutes after EGF, estimated, read-out: IC50 (TCRP, ligand stimulated)): ~2000 nM; IC50 (H1975 [4]; NCI-H1975, H1975 (mutant L858R/T790M EGFR), 72 hours post compound treatment): 560 nM; IC50 (H1975 [1]; [6]): ~1250 nM"
Cc1ccc(NC(=O)c2ccc(CN3CCN(C)CC3)cc2)cc1Nc1nc(-c2cccnc2)cs1 [Masitinib],None of these inhibitors induced a TCRP similar to PF2341006,–,–,"TCRP (Cell Index response, cell growth) (HCC827; HCC827, increasing concentrations): did not inhibit HCC827 cell growth; TCRP (Cell Index response) (C6; C6): dose-dependent short-term increase (to a various degree) and long-term decrease in Cell Index; IC50 (C6; [5]): 487 nM"
Cn1c(=O)n(-c2ccc(C(C)(C)C#N)cc2)c2c3cc(-c4cnc5ccccc5c4)ccc3ncc21 [BEZ235],None of these inhibitors induced a TCRP similar to PF2341006,not present in the control cell line 10T1/2-tva,triggered 10T1/2-tva-H1047R specific cell index drop,–
Oc1ccc(-c2nc(-c3ccncc3)c(-c3ccc(F)cc3)[nH]2)cc1 [SB202190],None of these inhibitors induced a TCRP similar to PF2341006,did not introduce significant cell index changes in either cell line,did not introduce significant cell index changes in either cell line,–
COC(=O)[C@@]1(OC)C[C@H]2O[C@]1(C)n1c3ccccc3c3c4c(c5c6ccccc6n2c5c31)C(=O)N(C)C4 [KT5823],–,did not introduce significant cell index changes in either cell line,did not introduce significant cell index changes in either cell line,–

# From US10620188B2, “Using impedance-based cell response profiling to identify putative inhibitors for oncogene addicted targets or pathways” (ACEA Biosciences, Inc., priority 2002, dated 2020)
